Test results from US20090054392A1, “NAPHTHYLPYRIMIDINE, NAPHTHYLPYRAZINE AND NAPHTHYLPYRIDAZINE ANALOGS AND THEIR USE AS AGONISTS OF THE WNT-BETA-CATENIN CELLULAR MESSAGING SYSTEM” (Wyeth, priority 2007, published 2009).
Where two headings read alike, the source gives them in different places.

System: Dkk1-LRP5-TCF-Luciferase
Assay: Functional Dkk1-LRP5-TCF-Luciferase Assay in U2OS Cells
Conditions: for EC50 / fold induction at 2 µM / fold induction at 20 µM: Homo sapiens, U2OS; for A = MAX FOLD Induction/DMSO CONTROL: maximum fold induction over DMSO control
[1] = read-out: B = TCF ACTIVITY/DMSO CONTROL Fold induction @ 2.0 uM, 2.0 uM compound
[2] = read-out: C = TCF ACTIVITY/DMSO CONTROL Fold induction @ 20.0 uM, 20.0 uM compound

EC50 [µM] | A = MAX FOLD Induction/DMSO CONTROL [fold] | SMILES | fold induction at 2 µM [1] | fold induction at 20 µM [2] | fold induction at 2 µM (read-out: B = TCF ACTIVITY/DMSO CONTROL Fold induction @ 2.0 uM) | fold induction at 20 µM (read-out: C = TCF ACTIVITY/DMSO CONTROL Fold induction @ 20.0 uM)
2.26 | 4.063 | NCC1CCN(c2nccc(-c3ccc4ccccc4c3)n2)C1 (stereo not drawn) [1-{1-[4-(2-naphthyl)pyrimidin-2-yl]pyrrolidin-3-yl}methanamine] | 4.53 | 0.01 |  | 
 |  | CN(c1nccc(-c2ccc3ccccc3c2)n1)C1CCN(C(=O)C(F)(F)F)CC1 [N-methyl-4-(2-naphthyl)-N-[1-(trifluoroacetyl)piperidin-4-yl]pyrimidin-2-amine] | 1.03 | 1.06 |  | 
 |  | c1ccc2cc(-c3ccnc(N4CCC5(CC4)OCCO5)n3)ccc2c1 [8-[4-(2-naphthyl)pyrimidin-2-yl]-1,4-dioxa-8-azaspiro[4.5]decane] |  |  | 1.5 | 1.74
 |  | CN(C)S(=O)(=O)NCC1CCN(c2nccc(-c3ccc4ccccc4c3)n2)CC1 [N,N-dimethyl-N′-({1-[4-(2-naphthyl)pyrimidin-2-yl]piperidin-4-yl}methyl)sulfamide] | 1.05 | 1.11 |  | 
12.3 | 2.490 | COC(=O)N[C@H]1CC[C@H](Nc2nccc(-c3ccc4ccccc4c3)n2)CC1 [methyl (trans-4-{[4-(2-naphthyl)pyrimidin-2-yl]amino}cyclohexyl)carbamate] | 2.53 | 1.66 |  | 
 |  | COC(=O)C(NC(=O)OC(C)(C)C)C1CCN(c2nccc(-c3ccc4ccccc4c3)n2)CC1 (stereo not drawn) [methyl [(tert-butoxycarbonyl)amino]{1-[4-(2-naphthyl)pyrimidin-2-yl]piperidin-4-yl}acetate] |  | 0.71 |  | 
 | 2.840 | CNCC1CCN(c2nccc(-c3ccc4ccccc4c3)n2)CC1 [N-methyl-1-{1-[4-(2-naphthyl)pyrimidin-2-yl]piperidin-4-yl}methanamine] | 1.49 | 0.01 |  | 
 | 1.840 | OC[C@H]1CCCN(c2nccc(-c3ccc4ccccc4c3)n2)C1 [{(3S)-1-[4-(2-naphthyl)pyrimidin-2-yl]piperidin-3-yl}methanol] | 2.8 | 1.81 |  | 
 | 2.950 | NCC[C@@H]1CCCN1c1nccc(-c2ccc3ccccc3c2)n1 [2-{(2S)-1-[4-(2-naphthyl)pyrimidin-2-yl]pyrrolidin-2-yl}ethanamine] | 4.08 | 0.02 |  | 
5.53 | 2.680 | OC1CCN(CC2CCN(c3nccc(-c4ccc5ccccc5c4)n3)C2)CC1 (stereo not drawn) [1-({1-[4-(2-naphthyl)pyrimidin-2-yl]pyrrolidin-3-yl}methyl)piperidin-4-ol] | 3.52 | 0.1 |  | 
 |  | NC[C@H]1CC[C@@H](c2nccc(-c3ccc4ccccc4c3)n2)CC1 [1-{cis-4-[4-(2-naphthyl)pyrimidin-2-yl]cyclohexyl}methanamine] | 3.4 |  |  | 
0.64 | 1.810 | CN(C)C(=O)N1CCC(Nc2nccc(-c3ccc4ccccc4c3)n2)CC1 [N,N-dimethyl-4-{[4-(2-naphthyl)pyrimidin-2-yl]amino}piperidine-1-carboxamide] | 1.13 | 1.58 |  | 
 | 1.320 | CCNC(=O)NC1CCCN(c2nccc(-c3ccc4ccccc4c3)n2)CC1 (stereo not drawn) [N-ethyl-N′-{1-[4-(2-naphthyl)pyrimidin-2-yl]azepan-4-yl}urea] | 2.33 | 2.56 |  | 
 |  | COC(=O)NCC1CCN(c2nccc(-c3ccc4ccccc4c3)n2)C1 (stereo not drawn) [methyl ({1-[4-(2-naphthyl)pyrimidin-2-yl]pyrrolidin-3-yl}methyl)carbamate] | 1.04 | 1.08 |  | 
0.98 | 2.765 | c1ccc2cc(-c3ccnc(NCCc4ccncc4)n3)ccc2c1 [4-(2-naphthyl)-N-(2-pyridin-4-ylethyl)pyrimidin-2-amine] | 1.96 | 0.375 |  | 
 |  | CC1CCN(c2nccc(-c3ccc4ccccc4c3)n2)CC1 [2-(4-methylpiperidin-1-yl)-4-(2-naphthyl)pyrimidine] | 1.51 |  |  | 
 |  | CC(C)(C)OC(=O)N1CC[C@H](CNc2nccc(-c3ccc4ccccc4c3)n2)C1 [tert-butyl (3R)-3-({[4-(2-naphthyl)pyrimidin-2-yl]amino}methyl)pyrrolidine-1-carboxylate] | 1.83 |  |  | 
 |  | CN(C)S(=O)(=O)N1CCCN(c2nccc(-c3ccc4ccccc4c3)n2)CC1 [N,N-dimethyl-4-[4-(2-naphthyl)pyrimidin-2-yl]-1,4-diazepane-1-sulfonamide] |  | 0.63 |  | 
 |  | COC(=O)N1CCC(N(C)c2nccc(-c3ccc4ccccc4c3)n2)CC1 [methyl 4-{methyl[4-(2-naphthyl)pyrimidin-2-yl]amino}piperidine-1-carboxylate] | 1.43 | 1.47 |  | 
 | 2.300 | CC(C)(C)NC[C@H]1CCN(c2nccc(-c3ccc4ccccc4c3)n2)C1 [2-methyl-N-({(3R)-1-[4-(2-naphthyl)pyrimidin-2-yl]pyrrolidin-3-yl}methyl)propan-2-amine] | 2.24 | 0.01 |  | 
 | 0.880 | CS(=O)(=O)NCCC1CCN(c2nccc(-c3ccc4ccccc4c3)n2)CC1 [N-(2-{1-[4-(2-naphthyl)pyrimidin-2-yl]piperidin-4-yl}ethyl)methanesulfonamide] |  |  |  | 
 |  | CN(CCN(C)[C@@H]1CCN(c2nccc(-c3ccc4ccccc4c3)n2)C1)Cc1ccccc1 [N-benzyl-N,N′-dimethyl-N′-{(3R)-1-[4-(2-naphthyl)pyrimidin-2-yl]pyrrolidin-3-yl}ethane-1,2-diamine] | 1.6 |  |  | 
 |  | Cc1ccc(S(=O)(=O)NCC2CCN(c3nccc(-c4ccc5ccccc5c4)n3)CC2)cc1 [4-methyl-N-({1-[4-(2-naphthyl)pyrimidin-2-yl]piperidin-4-yl}methyl)benzenesulfonamide] | 1.07 | 0.41 |  | 
 |  | CC(=O)N1CCC(CNc2nccc(-c3ccc4ccccc4c3)n2)CC1 [N-[(1-acetylpiperidin-4-yl)methyl]-4-(2-naphthyl)pyrimidin-2-amine] | 1.02 | 1.33 |  | 
 |  | CCNC(=O)N[C@H]1CCN(c2nccc(-c3ccc4ccccc4c3)n2)C1 [N-ethyl-N′-{(3S)-1-[4-(2-naphthyl)pyrimidin-2-yl]pyrrolidin-3-yl}urea] | 1.03 | 0.6 |  | 
 |  | O=CC1CCN(c2nccc(-c3ccc4ccccc4c3)n2)CC1 [1-[4-(2-naphthyl)pyrimidin-2-yl]piperidine-4-carbaldehyde] | 1.51 | 0.25 |  | 
2.26 | 3.635 | CCN(CCO)CC1CCN(c2nccc(-c3ccc4ccccc4c3)n2)C1 (stereo not drawn) [2-[ethyl({1-[4-(2-naphthyl)pyrimidin-2-yl]pyrrolidin-3-yl}methyl)amino]ethanol] | 2.8 | 0.01 |  | 
 |  | CS(=O)(=O)NCC1CN(c2nccc(-c3ccc4ccccc4c3)n2)C1 [N-({1-[4-(2-naphthyl)pyrimidin-2-yl]azetidin-3-yl}methyl)methanesulfonamide] | 1.1 | 1.38 |  | 
